Measurements: patent US6117886A, “Tetrazole derivatives” (Kowa Co., Ltd., priority 1997, dated 2000)
Counter-ions that a name gives are not always drawn.

Tests used:
[1] = target: guinea pig ileum, contraction in response to histamine (Cavia porcellus, UniProt P31389); assay: Antihistaminic action, in vitro test on isolated ileum (contraction in response to histamine); conditions: 10^-8 to 10^-4 M histamine dose-response curve, 30 min after test compound, 29° C; for Kb: read-out: Anti-histaminic action, pA2 (converted)
Chain of guinea pig ileum, contraction in response to histamine (P31389 whole entry): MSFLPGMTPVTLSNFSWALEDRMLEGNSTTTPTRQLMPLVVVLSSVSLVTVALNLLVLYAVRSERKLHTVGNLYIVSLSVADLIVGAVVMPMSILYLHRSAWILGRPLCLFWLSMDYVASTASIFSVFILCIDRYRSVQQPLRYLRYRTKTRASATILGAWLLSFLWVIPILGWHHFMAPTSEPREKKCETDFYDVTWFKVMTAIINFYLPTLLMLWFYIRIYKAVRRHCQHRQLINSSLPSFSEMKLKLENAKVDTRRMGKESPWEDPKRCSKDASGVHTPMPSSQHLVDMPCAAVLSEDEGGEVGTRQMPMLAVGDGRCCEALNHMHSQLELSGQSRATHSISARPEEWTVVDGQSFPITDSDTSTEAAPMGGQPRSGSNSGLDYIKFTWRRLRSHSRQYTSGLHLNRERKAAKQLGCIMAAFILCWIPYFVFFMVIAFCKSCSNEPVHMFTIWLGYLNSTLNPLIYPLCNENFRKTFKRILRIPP

[2] = system: guinea pig ileum, contraction induced with LTD4; assay: Antileukotriene action, in vitro test on isolated ileum (contraction induced with LTD4); conditions: contraction induced with 10^-8 M LTD4; 29° C; read-out: Anti-LTD4 action IC50
H1 Receptor = target: T1, H1 Receptor (Cavia porcellus, UniProt P31389); assay: H1 Receptor Binding Inhibitory Test; design: species or system guinea pig
T1 construct: guinea pig cerebral membrane protein; from tissue; host or cells: guinea pig cerebral membranes
T1 sequence (P31389 whole entry): as above
Description: Reaction was stopped by addition of ice-cold phosphate buffer, and immediately thereafter, the reaction mixture was filtered by use of a Wattman CF/C filter. The filter was washed twice, each time with 20 ml ice-cold buffer. Radioactivity of the residue was measured by use of a liquid scintillation counter. From the value as obtained when a test compound was not added and values as obtained when the test compound was added at different concentrations, there was determined a dose-response curve representing suppression action of the test compound, from which a 50% inhibitory concentration (IC50) was obtained. Based on the IC50 value and by use of the Cheng-Prusoff equation, a dissociation constant (KD) was calculated (Table 9). In a saturation test, 10^-4 M R(-)-dimetindene was used for the measurement of the amount of non-specific binding.

LTD4 Receptor = target: T2, LTD4 Receptor (Cavia porcellus, UniProt Q2NNR5); assay: LTD4 Receptor Binding Inhibitory Test; design: species or system guinea pig
T2 construct: guinea pig lung protein; from tissue; host or cells: guinea pig lung
T2 sequence (Q2NNR5 1-340): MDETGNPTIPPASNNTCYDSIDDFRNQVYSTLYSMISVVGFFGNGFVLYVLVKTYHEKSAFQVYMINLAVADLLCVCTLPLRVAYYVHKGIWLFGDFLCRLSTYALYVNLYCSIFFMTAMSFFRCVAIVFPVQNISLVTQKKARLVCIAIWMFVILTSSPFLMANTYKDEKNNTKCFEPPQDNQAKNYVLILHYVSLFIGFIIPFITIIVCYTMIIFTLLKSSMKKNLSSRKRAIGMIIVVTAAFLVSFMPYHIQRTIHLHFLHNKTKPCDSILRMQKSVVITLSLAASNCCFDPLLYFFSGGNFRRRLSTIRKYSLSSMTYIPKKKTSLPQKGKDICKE
Description: Reaction was stopped by addition of ice-cold Tris-HCl/NaCl (10 mM/100 mM, pH 7.5) buffer, and immediately thereafter, the reaction mixture was filtered by use of a Wattman CF/C filter. The filter was washed twice, each time with 20 ml ice-cold buffer. Radioactivity of the residue was measured by use of a liquid scintillation counter. […] In a saturation test, 2 μM leukotriene D4 was used for the measurement of the amount of non-specific binding.

SMILES | Kb [1] [nM] | IC50 [2] [nM] | Kd (H1 Receptor) [nM] | Kd (LTD4 Receptor) [nM] | Anti-histaminic action, pD'2 [1]
COc1ccc2[nH]c(=O)c(-c3nnnn3Cc3cccc(OCc4ccc5ccccc5n4)c3)cc2c1 [Example 2, 6-methoxy-3-{1-[3-(2-quinolylmethoxy)benzyl]tetrazolyl}quinolin-2-one] | 4170 | 250 | – | – | –
CCOCCn1c(COc2ccc(Cn3nnc(-c4cc5cc(OC)ccc5[nH]c4=O)n3)cc2)nc2ccccc21 [Example 6, 3-{2-{4-[N-(2-Ethoxyethyl)benzimidazol-2-ylmethoxy]benzyl}tetrazolyl}-6-methoxyquinolin-2-one] | 40.7 | 1100 | 3290 | 8110 | –
COc1ccc2c(c1)cc(-c1nnn(Cc3cccc(OCc4ccc5ccccc5n4)c3)n1)c(=O)n2CCCCN1CCN(Cc2ccc3ccccc3n2)CC1 [Example 47, 6-Methoxy-1-{4-[4-(2-quinolylmethyl)-piperazinyl]butyl}-3-{2-[3-(2-quinolylmethoxy)benzyl]tetrazolyl}quinolin-2-one dimalate] | 20 | – | – | – | –
NCC(=O)Oc1ccc2[nH]c(=O)c(-c3nnn(Cc4cccc(OCc5ccc6ccccc6n5)c4)n3)cc2c1 [Example 64, 6-Glycyloxy-3-{2-[3-(2-quinolylmethoxy)-benzyl]tetrazolyl}quinolin-2-one] | – | – | 61900 | 22.1 | –
COc1ccc2[nH]c(=O)c(-c3nnn(Cc4ccc(OCc5ccc6ccccc6n5)cc4)n3)cc2c1 [Example 24, 6-Methoxy-3-{2-[4-(2-quinolylmethoxy)benzyl]-tetrazolyl}quinolin-2-one] | – | – | 9510 | 205 | –
O=c1[nH]c2ccccc2cc1-c1nnn(Cc2cccc(OCc3ccc4ccccc4n3)c2)n1 [Example 26, 3-{2-[3-(2-Quinolylmethoxy)benzyl]-tetrazolyl}quinolin-2-one] | – | 179 | 89500 | 179 | 5.24
COc1ccc2c(c1)cc(-c1nnn(Cc3cccc(OCc4ccc5ccccc5n4)c3)n1)c(=O)n2C [Example 38, 6-methoxy-1-methyl-3-{2-[3-(2-quinolylmethoxy)benzyl]tetrazolyl}quinolin-2-one] | – | 160 | – | – | 5.52
COc1ccc2c(c1)cc(-c1nnn(Cc3cccc(OCc4ccc5ccccc5n4)c3)n1)c(=O)n2CCCN1CCN(Cc2ccc3ccccc3n2)CC1 [Example 45, 1-{3-[4-(2-quinolylmethyl)-1-piperazinyl]propyl}-6-methoxy-3-(2-[3-(2-quinolylmethoxy)benzyl]tetrazolyl)quinolin-2-one dihydrochloride] | 21.9 | 640 | – | – | –
CC(C)(C)c1ccc2[nH]c(=O)c(-c3nnnn3Cc3cccc(OCc4ccc5ccccc5n4)c3)cc2c1 [Example 18, 6-tert-Butyl-3-{1-[3-(2-quinolylmethoxy)-benzyl]tetrazolyl}quinolin-2-one] | – | – | 22800 | 509 | –
O=c1[nH]c2ccc(O)cc2cc1-c1nnn(Cc2ccc(OCc3ccc4ccccc4n3)cc2)n1 [Example 22, 6-Hydroxy-3-{2-[4-(2-quinolylmethoxy)benzyl]-tetrazolyl}quinolin-2-one] | – | – | 30100 | 364 | –
COc1ccc2c(c1)cc(-c1nnn(Cc3cccc(OCc4ccc5ccccc5n4)c3)n1)c(=O)n2CCCN1CCN(Cc2ccccn2)CC1 [Example 48, 6-Methoxy-1-{3-[4-(2-pyridylmethyl)-piperazinyl]propyl}-3-{2-[3-(2-quinolylmethoxy)benzyl]tetrazolyl}quinolin-2-one dihydrochloride] | 115 | – | – | – | –
CC(=O)Oc1ccc2[nH]c(=O)c(-c3nnn(Cc4cccc(OCc5ccc6ccccc6n5)c4)n3)cc2c1 [Example 58, 6-Acetoxy-3-{2-[3-(2-quinolylmethoxy)benzyl]-tetrazolyl}quinolin-2-one] | – | – | 480000 | 38.2 | –
CN(C)CCn1c(=O)c(-c2nnn(Cc3cccc(OCc4ccc5ccccc5n4)c3)n2)cc2cc(O)ccc21 [Example 39, 1-Dimethylaminoethyl-6-hydroxy-3-{2-[3-(2-quinolylmethoxy)benzyl]tetrazolyl}quinolin-2-one] | 30.2 | – | – | – | –
CN(C)CCCn1c(=O)c(-c2nnn(Cc3cccc(OCc4ccc5ccccc5n4)c3)n2)cc2cc(O)ccc21 [Example 42, 1-Dimethylaminopropyl-6-hydroxy-3-{2-[3-(2-quinolylmethoxy)benzyl]tetrazolyl}quinolin-2-one] | 55 | – | – | – | –
COc1ccc2[nH]c(=O)c(-c3nnnn3Cc3ccc(OCc4ccc5ccccc5n4)cc3)cc2c1 [Example 25, 6-Methoxy-3-{1-[4-(2-quinolylmethoxy)benzyl]-tetrazolyl}quinolin-2-one] | – | – | 13900 | 5.86 | –
CN1CCN(CCCOc2ccc3c(c2)cc(-c2nnn(Cc4cccc(OCc5ccc6ccccc6n5)c4)n2)c(=O)n3C)CC1 [Example 52, 1-methyl-6-[3-(4-metylpiperazinyl)propyl]oxy-3-{2-[3-(2-quinolylmethoxy)benzyl]tetrazolyl}quinolin-2-one trihydrochloride] | 912 | 1300 | – | – | –
CN(C)CCn1c(=O)c(-c2nnnn2Cc2cccc(OCc3ccc4ccccc4n3)c2)cc2cc(O)ccc21 [Example 40, 1-Dimethylaminoethyl-6-hydroxy-3-{1-[3-(2-quinolylmethoxy)benzyl]tetrazolyl}quinolin-2-one] | 251 | – | – | – | –
Cn1c(COc2cccc(Cn3nnnc3-c3cc4ccccc4[nH]c3=O)c2)nc2ccccc21 [Example 9, 3-{1-[3-(N-Methylbenzimidazol-2-ylmethoxy)benzyl]tetrazolyl}quinolin-2-one] | – | – | 13700 | 320 | –
CC(=O)Oc1ccc2[nH]c(=O)c(-c3nnn(Cc4ccc(OCc5ccc6ccccc6n5)cc4)n3)cc2c1 [Example 56, 6-Acetoxy-3-{2-[4-(2-quinolylmethoxy)benzyl]-tetrazolyl}quinolin-2-one] | – | – | 84700 | 336 | –
CN(C)CCn1c(=O)c(-c2nnn(Cc3cccc(C=Cc4ccc5ccccc5n4)c3)n2)cc2cc(O)ccc21 [Example 43, 1-Dimethylaminoethyl-6-hydroxy-3-{2-[3-(2-quinolylethenyl)benzyl]tetrazolyl}quinolin-2-one] | 174 | – | – | – | –
O=c1[nH]c2ccc(O)cc2cc1-c1nnn(Cc2cccc(OCc3ccc4ccccc4n3)c2)n1 [Example 28, 6-Hydroxy-3-{2-[3-(2-quinolylmethoxy)benzyl]-tetrazolyl}quinolin-2-one] | – | – | 13900 | 21 | –
Cn1c(COc2cccc(Cn3nnc(-c4cc5ccccc5[nH]c4=O)n3)c2)nc2ccccc21 [Example 8, 3-{2-[3-(N-Methylbenzimidazol-2-ylmethoxy)benzyl]tetrazolyl}quinolin-2-one] | – | – | 9380 | 143 | –
COc1ccc2c(c1)cc(-c1nnn(Cc3cccc(OCc4ccc5ccccc5n4)c3)n1)c(=O)n2CCN(C)C [Example 41, 1-Dimethylaminoethyl-6-methoxy-3-{2-[3-(2-quinolylmethoxy)benzyl]tetrazolyl}quinolin-2-one] | – | – | – | – | 5.58
O=c1[nH]c2ccc(O)cc2cc1-c1nnnn1Cc1cccc(OCc2ccc3ccccc3n2)c1 [Example 29, 6-Hydroxy-3-{1-[3-(2-quinolylmethoxy)benzyl]-tetrazolyl}quinolin-2-one] | – | – | 57200 | 13.6 | –
COc1ccc2[nH]c(=O)c(-c3nnn(Cc4cccc(OCc5ccc6ccccc6n5)c4)n3)cc2c1 [Example 1, 6-methoxy-3-{2-[3-(2-quinolylmethoxy)benzyl]tetrazolyl}quinolin-2-one] | – | 90 | 2960 | 114 | 5.53
